What was measured:
α7nAChR-FLNA association = target: T1, α7nAChR-FLNA association (Rattus norvegicus, UniProt A0A8I5ZV49); assay: Rat frontal cortical synaptosomes treated with Aβ42, anti-FLNA immunoprecipitation / Western blot; format: cell-based; conditions: 1 or 10 nM compound, simultaneously or 10 min prior to 0.1 μM Aβ42
T1 construct: from tissue; host or cells: rat frontal cortical synaptosomes
Source text: The α7nAChR-FLNA complexes in the solubilized synaptosomes were immunoprecipitated with immobilized anti-FLNA and the α7nAChR and FLNA levels in the anti-FLNA immunoprecipitates determined by Western blotting (FIG. 14A) and quantified by densitometry for illustrative compounds (FIG. 14B). n=3. […] The letter designation “M” that accompanies many of the “C-series” compounds is omitted from FIG. 14, the remaining figures and most discussions of the figures and compounds hereinafter for ease in expression. Structural formulas of the compounds used in this and the other figures are provided hereinafter.
(§1) The complexes in the solubilized synaptosomes, and α7nAChR, TLR4 and FLNA levels in the anti-FLNA immunoprecipitates were determined by Western blotting (FIG. 15A) in which numerals outside of and to the left of the blots are as discussed before. Amounts present in the blots were quantified by densitometry (FIG. 15B). […] Structural formulas of the compounds used in this and the other figures are provided hereinafter.

α7nAChR/Aβ42 complexes = assay: Protein A and Protein G capture plate assay in lymphocytes; format: cell-based, human; conditions: 1 nM
Experimental: (§2) Each sample was assessed in duplicate.

α7nAChR/FLNA complexes = target: T2, α7nAChR/FLNA complexes (Homo sapiens, UniProt P21333); assay: as above; format: cell-based; conditions: 1 nM
T2 construct: To determine the levels of FLNA-α7nAChR, FLNA-TLR4 and α7nAChR-Aβ42 complexes in the lymphocytes; endogenous in cells; host or cells: lymphocytes from venous blood of AD patients and control subjects (ex vivo)
T2 sequence (P21333 2-2647 limits assumed, one chain of several): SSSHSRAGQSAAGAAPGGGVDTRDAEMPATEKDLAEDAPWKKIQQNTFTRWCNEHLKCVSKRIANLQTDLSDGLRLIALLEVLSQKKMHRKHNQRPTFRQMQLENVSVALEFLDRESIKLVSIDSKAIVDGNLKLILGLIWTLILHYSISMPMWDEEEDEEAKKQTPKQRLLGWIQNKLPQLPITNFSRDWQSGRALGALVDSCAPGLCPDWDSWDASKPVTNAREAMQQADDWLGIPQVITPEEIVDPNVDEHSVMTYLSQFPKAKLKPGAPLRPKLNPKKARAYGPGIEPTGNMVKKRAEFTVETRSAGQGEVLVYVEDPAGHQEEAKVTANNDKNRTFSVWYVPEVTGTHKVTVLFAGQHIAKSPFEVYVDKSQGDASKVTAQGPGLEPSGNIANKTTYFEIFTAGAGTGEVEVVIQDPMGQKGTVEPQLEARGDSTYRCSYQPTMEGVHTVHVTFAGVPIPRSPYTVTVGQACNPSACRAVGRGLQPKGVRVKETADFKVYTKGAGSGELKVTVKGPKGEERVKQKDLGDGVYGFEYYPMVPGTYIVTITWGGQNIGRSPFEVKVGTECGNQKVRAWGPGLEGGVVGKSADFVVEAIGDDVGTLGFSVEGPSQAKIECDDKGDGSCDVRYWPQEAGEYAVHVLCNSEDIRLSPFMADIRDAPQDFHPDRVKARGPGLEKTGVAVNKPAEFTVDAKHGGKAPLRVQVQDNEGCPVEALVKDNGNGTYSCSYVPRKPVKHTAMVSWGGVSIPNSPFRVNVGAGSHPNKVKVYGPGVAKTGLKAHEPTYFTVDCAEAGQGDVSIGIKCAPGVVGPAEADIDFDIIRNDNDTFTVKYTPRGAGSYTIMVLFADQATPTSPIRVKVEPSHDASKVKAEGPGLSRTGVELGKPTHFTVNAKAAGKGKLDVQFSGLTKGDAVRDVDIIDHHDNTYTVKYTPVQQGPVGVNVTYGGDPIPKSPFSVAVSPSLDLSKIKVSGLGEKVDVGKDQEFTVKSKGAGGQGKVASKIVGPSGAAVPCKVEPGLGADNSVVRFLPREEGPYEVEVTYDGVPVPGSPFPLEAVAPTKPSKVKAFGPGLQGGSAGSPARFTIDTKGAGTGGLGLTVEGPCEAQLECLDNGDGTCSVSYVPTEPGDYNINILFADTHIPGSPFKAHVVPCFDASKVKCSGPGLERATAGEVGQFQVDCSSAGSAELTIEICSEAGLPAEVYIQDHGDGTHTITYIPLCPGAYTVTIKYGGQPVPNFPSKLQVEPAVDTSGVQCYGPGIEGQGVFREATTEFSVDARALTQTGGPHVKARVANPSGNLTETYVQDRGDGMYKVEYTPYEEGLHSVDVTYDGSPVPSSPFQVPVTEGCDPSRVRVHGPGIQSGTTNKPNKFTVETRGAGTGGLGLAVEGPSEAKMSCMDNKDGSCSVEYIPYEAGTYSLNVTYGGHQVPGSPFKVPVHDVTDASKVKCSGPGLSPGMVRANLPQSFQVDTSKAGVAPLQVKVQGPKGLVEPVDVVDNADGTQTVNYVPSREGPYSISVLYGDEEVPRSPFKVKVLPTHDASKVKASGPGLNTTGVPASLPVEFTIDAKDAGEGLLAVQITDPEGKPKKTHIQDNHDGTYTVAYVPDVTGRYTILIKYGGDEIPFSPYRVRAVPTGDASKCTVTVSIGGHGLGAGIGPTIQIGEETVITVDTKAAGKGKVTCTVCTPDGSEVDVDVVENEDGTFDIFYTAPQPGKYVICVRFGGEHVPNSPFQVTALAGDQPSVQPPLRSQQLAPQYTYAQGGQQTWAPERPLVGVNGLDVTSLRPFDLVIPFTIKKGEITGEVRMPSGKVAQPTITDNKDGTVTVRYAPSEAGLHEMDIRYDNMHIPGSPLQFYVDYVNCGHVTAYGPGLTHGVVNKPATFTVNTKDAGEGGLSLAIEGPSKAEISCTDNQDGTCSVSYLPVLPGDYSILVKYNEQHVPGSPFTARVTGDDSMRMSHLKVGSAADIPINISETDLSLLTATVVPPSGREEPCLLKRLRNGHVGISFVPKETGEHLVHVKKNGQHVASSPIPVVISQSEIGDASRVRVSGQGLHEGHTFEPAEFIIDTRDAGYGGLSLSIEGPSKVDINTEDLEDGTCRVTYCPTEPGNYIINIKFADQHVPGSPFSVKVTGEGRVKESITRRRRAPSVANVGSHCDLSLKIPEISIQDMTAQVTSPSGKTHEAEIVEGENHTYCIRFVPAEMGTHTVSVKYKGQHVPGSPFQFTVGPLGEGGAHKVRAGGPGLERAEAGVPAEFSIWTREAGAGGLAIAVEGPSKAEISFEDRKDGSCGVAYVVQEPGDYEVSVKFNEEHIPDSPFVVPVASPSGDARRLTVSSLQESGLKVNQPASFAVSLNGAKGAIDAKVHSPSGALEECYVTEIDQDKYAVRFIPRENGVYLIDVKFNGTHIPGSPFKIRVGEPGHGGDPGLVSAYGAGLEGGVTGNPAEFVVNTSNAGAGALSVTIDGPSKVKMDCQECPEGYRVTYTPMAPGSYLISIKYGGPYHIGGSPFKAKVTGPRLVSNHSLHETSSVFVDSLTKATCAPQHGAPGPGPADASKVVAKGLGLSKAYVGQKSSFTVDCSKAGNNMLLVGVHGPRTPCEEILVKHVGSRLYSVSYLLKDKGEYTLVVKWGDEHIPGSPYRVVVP
Experimental: as §2

α7nAChR-FLNA complex [1] = target: T3, α7nAChR-FLNA complex (Homo sapiens, UniProt P21333); assay: Lymphocyte co-immunoprecipitation / Western blot; format: cell-based
T3 construct: To determine the levels of FLNA-α7nAChR, FLNA-TLR4 and α7nAChR-Aβ42 complexes in the lymphocytes; endogenous in cells; host or cells: lymphocytes from venous blood of AD patients and control subjects (ex vivo)
T3 sequence (P21333 2-2647 limits assumed, one chain of several): as above
Experimental: To prepare lymphocytes, 7 ml of venous blood was collected into an EDTA-containing collecting tube or S-monovette (Sarstedt, Newton, N.C.). […] The lymphocytes were washed twice by mixing with 6 ml oxygenated Kreb's-Ringer followed by centrifugation at 250×g for 10 minutes and re-suspension. […] To store lymphocytes, the lymphocyte pellet was resuspended in 250 μl ice-cold oxygenated Kreb's-Ringer containing 10% glycerol, and stored at −20° C. for 1 hour before storage at −80° C.
In the case that frozen lymphocyte samples were used, a lymphocyte suspension was gradually thawed by storing at −20° C. for 1 hour after removal from −80° C. and then at thawed at 4° C.
The incubation was terminated by adding 1 ml ice-cold Ca^2+-free Kreb's-Ringer containing 0.5 mM EGTA/0.1 mM EDTA, protease and phosphatase inhibitors followed by centrifugation. The resultant lymphocyte pellet was homogenized in 0.25 ml ice-cold immunoprecipitation buffer. […]
The membranes were then washed 3 times (1 minutes each) with 0.1% Tween-20 containing PBS and then once with distilled water for 1 minutes. The immunoreactivity was detected by a chemiluminutesescent method (Supersignal chemiluminutesescent reagents−Pierce/Thermo), and visualized by immediate exposure to X-ray film for 10-30 seconds (depending on the intensity of the signal). Specific protein bands were quantified by densitometric scanning (GS-800 calibrated densitometer, Bio-Rad Laboratories).
The membranes were then washed 3 times (1 minutes each) with 0.1% Tween®-20-containing PBS and then once with distilled water for 1 minute. The immunoreactivity was detected by a chemiluminutesescent method (Supersignal chemiluminutesescent reagents—Pierce/Thermo), and visualized by immediate exposure to X-ray film for 10-30 seconds (depending on the intensity of the signal). Specific protein bands were quantified by densitometric scanning (GS-800 calibrated densitometer, Bio-Rad Laboratories). The data are expressed as the ratio of α7nAChR/FLNA, TLR4/FLNA or α7nAChR/β-Actin optical intensities (in arbitrary units).

TLR4/FLNA = target: T4, TLR4/FLNA (Rattus norvegicus, UniProt A0A8I5ZV49); assay: Rat frontal cortical synaptosomes treated with Aβ42, anti-FLNA immunoprecipitation / Western blot; format: cell-based; conditions: 1 or 10 nM compound, simultaneously or 10 min prior to 0.1 μM Aβ42; Dunnett's test
T4 construct: from tissue; host or cells: rat frontal cortical synaptosomes
Experimental: as §1

[2] = target: FLNA association with α7nAChR (Mus musculus, UniProt Q8BTM8); assay: ICV Aβ42 infusion mouse model, synaptosome co-immunoprecipitation; conditions: 10 mg/kg C0105 i.p. twice daily, 2 weeks; prefrontal cortex and hippocampus
α7nAChR-FLNA complex [3] = target: T3, α7nAChR-FLNA complex; assay: α7nAChR/FLNA ELISA of lymphocyte lysates (Example 7); format: cell-based; conditions: for Optical Density α7nAChR/FLNA (OD450), average: AD lymphocytes + 10 μM C0105, four replicate studies, background subtracted
Experimental: The capture antibody was the mouse anti-human Filamin A SC-17749 (Santa Cruz Biotechnology), and rabbit anti-human α7nAChR SC-5544 (Santa Cruz Biotechnology Santa Cruz Biotechnology) as the detection antibody. The assays were carried out in Santa Cruz Flat Bottom Plates.
PBS buffer used was 1×PBS (Mg-, and Ca-free) from Thermo Scientific, whereas PBST was 1×PBS+0.05% Tween®-20.
Coating buffer was prepared by dissolving 1.59 g of Na2CO3 in 0.9 L distilled H2O, to which was added 0.1 g NaN3 and 3.93 g of NaHCO3. The pH value was adjusted to 9.6, and the volume adjusted to 1 L with additional distilled H2O. Santa Cruz BSA blocking buffer supplemented with 1% BSA (sc-293965).
The HRP Detection Reagent (TMB) was prepared using 1-Step Ultra TMB-ELISA, (Cat#34028; Thermo Scientific). Standard protocol using 100 μl of the TMB substrate solution per each microplate well, followed by 10-15 minute incubation (or until color develops) and stopping reaction by adding 100 μl of 2 M sulfuric acid to each well. Absorbance (OD450) measured at 450 nm. Santa Cruz BSA blocking buffer was used supplemented with 1% BSA (SC-293965), and assays were carried out using a Molecular Devices Spectramax™ PLUS ELISA plate reader at 450 nm.
AD patient samples: 20 microtubes (labeled #1-#20; 100 ul volume each) with AD patients lymphocytes were received frozen on dry ice. Samples were kept at −20° C. freezer for 1 hour, following thawing at 4° C. […] Ice-cold PBS (300 μl) was added and entire contents were centrifuged to remove insoluble debris.
Normal patient sample was prepared by following procedure: 8 mL of venous blood was collected into cat#362761 BD Vacutainer™ CPT tube (cell preparation tube with sodium citrate) and following manufacturer's recommended protocol for white blood cells isolation (including two centrifugation/PBS wash steps). […] Ice-cold PBS (300 μl) was added and entire content was centrifuged to remove insoluble debris, resulting in “NP sample”.
Compound C0105 treatment was performed using AD patient white blood cells resuspended in 1×PBS and treated with: a) 10 μM Compound C0105 (final concentration), and b) control (PBS only) for 60 minutes at 37° C. (total volume is 400 μl of each sample).
Anti-Filamin A antibody (SC-17749) was diluted in Coating Buffer (at dilution ratio of 1:30) and 100 μl sample loaded per well and incubated 2.5 hours at room temperature (RT). The plate was covered with adhesive cover to prevent evaporation. Followed by washing of the microtiter plate with 150 μl of Blocking Buffer (supplemented with 1% BSA) and added 100 μl of Blocking Buffer to the wells for 30 minutes at RT.
AD samples (AD patients lymphocytes, as described above) were used to generate serial dilution series samples (dilution performed in PBS) and 100 μl sample loaded per well and incubated 1 hour at RT (total protein concentration is indicated as established by Bradford assay, as described above). The plate was covered with adhesive cover to prevent evaporation, followed by washing each well two times with 160 μl PBST Buffer.
After washing of the microtiter plate with washing buffer, 100 μl of α7nAChR primary antibody (SC-5544) were added per well (1:50 dilution ratio) in 1×PBS and incubated for 1 hour at RT.

[4] = target: FLNA association with TLR4 (Mus musculus, UniProt Q8BTM8); assay: ICV Aβ42 infusion mouse model, synaptosome co-immunoprecipitation; conditions: 10 mg/kg C0105 i.p. twice daily, 2 weeks; prefrontal cortex and hippocampus

With `CN1CCC2(CC1)NCC(=O)N2Cc1ccccc1` [Compound C0105] the “Effect on Aβ42-induced α7nAChR-FLNA association (in words)” value (α7nAChR-FLNA association) was “reduce α7nAChR-FLNA association”, the “Decrease in amount of α7nAChR/Aβ42 complexes” value (α7nAChR/Aβ42 complexes; AD lymphocytes) was “approximately 50%” and the “Response of α7nAChR/Aβ42 complexes (in words)” value (α7nAChR/Aβ42 complexes; YCI lymphocytes) was “essentially non-responsive”. The “Decrease in amount of α7nAChR FLNA complexes” value (α7nAChR/FLNA complexes; AD lymphocytes) was “approximately 50%”, the “Response of α7nAChR/FLNA complexes (in words)” value (α7nAChR/FLNA complexes; YCI lymphocytes) was “essentially non-responsive” and the inhibition at 0.001 µM (α7nAChR-FLNA complex [1]; 1 nM C0105, 30 min, lymphocytes of 20 AD subjects, read-out: Reduction of α7nAChR/FLNA complex level (% inhibition)) was roughly 50%. The “Effect on amount of α7nAChR-FLNA complexes (in words), pilot study” value (α7nAChR-FLNA complex [1]; 1 nM C0105, Aβ42-treated control and untreated AD lymphocytes) was “decreases the amount of α7nAChR-FLNA complexes”, the “Effect on α7nAChR/FLNA complex level (in words)” value (α7nAChR-FLNA complex [1]; 1 nM C0105, lymphocytes of 10 YCI controls) was “no discernible effect” and the “TLR4/FLNA ratio versus Aβ42 alone (in words)” value (TLR4/FLNA) was “statistically different from Aβ42 alone”. For the same molecule, the “Effect on Aβ42-induced FLNA association with α7nAChR (in words)” value [2] was “reduced Aβ42-induced increases in FLNA associations”, the “Effect on amount of α7nAChR associated with FLNA (in words)” value (α7nAChR-FLNA complex [3]; 10 μM, AD lymphocytes) was “significant reduction” and the “Effect on amount of α7nAChR/FLNA complex (in words)” value (α7nAChR-FLNA complex [3]; 10 μM, YCI lymphocyte preparation) was “substantially no difference”. For the same molecule, the “Optical Density α7nAChR/FLNA (OD450), average” value (“Optical Density α7nAChR/FLNA” below) (α7nAChR-FLNA complex [3]; 1.25 (mg) lysate per well) was 0.1572, the “Optical Density α7nAChR/FLNA” value (α7nAChR-FLNA complex [3]; 2.5 (mg) lysate per well) was 0.2261 and the “Optical Density α7nAChR/FLNA” value (α7nAChR-FLNA complex [3]; 5 (mg) lysate per well) was 0.291. For the same molecule, the “Optical Density α7nAChR/FLNA” value (α7nAChR-FLNA complex [3]; 10 (mg) lysate per well) was 0.3349, the “Optical Density α7nAChR/FLNA” value (α7nAChR-FLNA complex [3]; 20 (mg) lysate per well) was 0.4504 and the “Effect on Aβ42-induced FLNA association with TLR4 (in words)” value [4] was “reduced Aβ42-induced increases in FLNA associations”.

Source: patent US10222368B2 (priority 2012, dated 2019)
